Legend:
Test in all cases: relative viability (nuclei count vs DMSO), 5 days (fraction); higher = more cells survive
[1] = tested on: 201T
Outline: (§1)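 Cells from lung cancer lines were seeded into 1536-well plates and, one day later, dosed by pin tool. Treatments were either a single drug or a fixed dose of an anchor drug with five library-drug doses (not always all listed) in √10 steps. After 5 days, nuclei were stained in a one-step fixation (final 0.05% Triton X-100, 1% formaldehyde, 1 ug/ml Hoechst) and counted on 4× images, and relative viability is the treated-to-vehicle nuclei ratio, as the median of duplicate plates.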

[2] = tested on: A-427
Outline: as §1

[3] = tested on: BEN
Outline: as §1

[4] = tested on: COR-L23
Outline: as §1

[5] = tested on: EKVX
Outline: as §1

[6] = tested on: EMC-BAC-2
Outline: as §1

[7] = tested on: EPLC-272H
Outline: as §1

[8] = tested on: HCC-44
Outline: as §1

[9] = tested on: HCC-827
Outline: as §1

[10] = tested on: LCLC-103H
Outline: as §1

[11] = tested on: LK-2
Outline: as §1

[12] = tested on: LXF-289
Outline: as §1

[13] = tested on: NCI-H1651
Outline: as §1

[14] = tested on: NCI-H1793
Outline: as §1

[15] = tested on: NCI-H1915
Outline: as §1

[16] = tested on: NCI-H2087
Outline: as §1

[17] = tested on: NCI-H2126
Outline: as §1

[18] = tested on: NCI-H2347
Outline: as §1

[19] = tested on: NCI-H358
Outline: as §1

[20] = tested on: NCI-H460
Outline: as §1

[21] = tested on: NCI-H596
Outline: as §1

[22] = tested on: SW 1573
Outline: as §1

O=c1[nH]c2ccccc2n1C1CCN(CCCC(c2ccc(F)cc2)c2ccc(F)cc2)CC1 [Pimozide] + Cc1nc(NC(=O)N2CCC[C@H]2C(N)=O)sc1-c1ccnc(C(C)(C)C(F)(F)F)c1 [Alpelisib] (partner 2 µM)
relative viability ([1]; first compound 0.08 µM): 0.999 | relative viability ([1]; first compound 0.253 µM): 1.02 | relative viability ([1]; first compound 0.8 µM): 1.05 | relative viability ([1]; first compound 2.53 µM): 1.01 | relative viability ([1]; first compound 8 µM): 0.921 | relative viability ([2]; first compound 0.08 µM): 1.08 | relative viability ([2]; first compound 0.253 µM): 1.05 | relative viability ([2]; first compound 0.8 µM): 1.14 | relative viability ([2]; first compound 2.53 µM): 0.987 | relative viability ([2]; first compound 8 µM): 1.01 | relative viability ([3]; first compound 0.08 µM): 1.08 | relative viability ([3]; first compound 0.253 µM): 1.09 | relative viability ([3]; first compound 0.8 µM): 0.961 | relative viability ([3]; first compound 2.53 µM): 0.937 | relative viability ([3]; first compound 8 µM): 1.06 | relative viability ([4]; first compound 0.08 µM): 0.783 | relative viability ([4]; first compound 0.253 µM): 0.862 | relative viability ([4]; first compound 0.8 µM): 0.763 | relative viability ([4]; first compound 2.53 µM): 0.74 | relative viability ([4]; first compound 8 µM): 0.695 | relative viability ([5]; first compound 0.253 µM): 0.806 | relative viability ([5]; first compound 0.8 µM): 0.934 | relative viability ([5]; first compound 2.53 µM): 0.853 | relative viability ([5]; first compound 8 µM): 0.856 | relative viability ([6]; first compound 0.08 µM): 0.653 | relative viability ([6]; first compound 0.253 µM): 0.703 | relative viability ([6]; first compound 0.8 µM): 0.682 | relative viability ([6]; first compound 2.53 µM): 0.668 | relative viability ([6]; first compound 8 µM): 0.744 | relative viability ([7]; first compound 0.08 µM): 0.838 | relative viability ([7]; first compound 0.253 µM): 0.962 | relative viability ([7]; first compound 0.8 µM): 0.894 | relative viability ([7]; first compound 2.53 µM): 0.912 | relative viability ([7]; first compound 8 µM): 0.771 | relative viability ([8]; first compound 0.08 µM): 0.856 | relative viability ([8]; first compound 0.253 µM): 0.751 | relative viability ([8]; first compound 0.8 µM): 0.802 | relative viability ([8]; first compound 2.53 µM): 0.736 | relative viability ([8]; first compound 8 µM): 0.677 | relative viability ([9]; first compound 0.253 µM): 0.92 | relative viability ([9]; first compound 0.8 µM): 0.956 | relative viability ([9]; first compound 2.53 µM): 0.95 | relative viability ([9]; first compound 8 µM): 1 | relative viability ([10]; first compound 0.08 µM): 0.939 | relative viability ([10]; first compound 0.253 µM): 0.853 | relative viability ([10]; first compound 0.8 µM): 1.01 | relative viability ([10]; first compound 2.53 µM): 0.979 | relative viability ([10]; first compound 8 µM): 0.912 | relative viability ([11]; first compound 0.08 µM): 1.12 | relative viability ([11]; first compound 0.253 µM): 1.05 | relative viability ([11]; first compound 0.8 µM): 1.01 | relative viability ([11]; first compound 2.53 µM): 1.01 | relative viability ([11]; first compound 8 µM): 0.779 | relative viability ([12]; first compound 0.08 µM): 0.97 | relative viability ([12]; first compound 0.253 µM): 0.955 | relative viability ([12]; first compound 0.8 µM): 1.01 | relative viability ([12]; first compound 2.53 µM): 1.02 | relative viability ([12]; first compound 8 µM): 0.945 | relative viability ([13]; first compound 0.08 µM): 0.911 | relative viability ([13]; first compound 0.253 µM): 0.945 | relative viability ([13]; first compound 0.8 µM): 0.945 | relative viability ([13]; first compound 2.53 µM): 1.04 | relative viability ([13]; first compound 8 µM): 0.926 | relative viability ([14]; first compound 0.08 µM): 0.491 | relative viability ([14]; first compound 0.253 µM): 0.567 | relative viability ([14]; first compound 0.8 µM): 0.988 | relative viability ([14]; first compound 2.53 µM): 0.665 | relative viability ([14]; first compound 8 µM): 0.87 | relative viability ([15]; first compound 0.08 µM): 1.1 | relative viability ([15]; first compound 0.253 µM): 1.06 | relative viability ([15]; first compound 0.8 µM): 0.837 | relative viability ([15]; first compound 2.53 µM): 1.08 | relative viability ([15]; first compound 8 µM): 0.997 | relative viability ([16]; first compound 0.08 µM): 0.847 | relative viability ([16]; first compound 0.253 µM): 1.1 | relative viability ([16]; first compound 0.8 µM): 1.01 | relative viability ([16]; first compound 2.53 µM): 0.975 | relative viability ([16]; first compound 8 µM): 0.89 | relative viability ([17]; first compound 0.08 µM): 0.756 | relative viability ([17]; first compound 0.253 µM): 0.734 | relative viability ([17]; first compound 0.8 µM): 0.729 | relative viability ([17]; first compound 2.53 µM): 0.758 | relative viability ([17]; first compound 8 µM): 0.757 | relative viability ([18]; first compound 0.08 µM): 1.11 | relative viability ([18]; first compound 0.253 µM): 0.966 | relative viability ([18]; first compound 0.8 µM): 0.914 | relative viability ([18]; first compound 2.53 µM): 1.01 | relative viability ([18]; first compound 8 µM): 0.966 | relative viability ([19]; first compound 0.08 µM): 0.761 | relative viability ([19]; first compound 0.253 µM): 0.775 | relative viability ([19]; first compound 0.8 µM): 0.786 | relative viability ([19]; first compound 2.53 µM): 0.808 | relative viability ([19]; first compound 8 µM): 0.852 | relative viability ([20]; first compound 0.08 µM): 0.476 | relative viability ([20]; first compound 0.253 µM): 0.428 | relative viability ([20]; first compound 0.8 µM): 0.472 | relative viability ([20]; first compound 2.53 µM): 0.487 | relative viability ([20]; first compound 8 µM): 0.493 | relative viability ([21]; first compound 0.08 µM): 0.481 | relative viability ([21]; first compound 0.253 µM): 0.476 | relative viability ([21]; first compound 0.8 µM): 0.374 | relative viability ([21]; first compound 2.53 µM): 0.481 | relative viability ([21]; first compound 8 µM): 0.392 | relative viability ([22]; first compound 0.08 µM): 0.795 | relative viability ([22]; first compound 0.253 µM): 0.788 | relative viability ([22]; first compound 0.8 µM): 0.764 | relative viability ([22]; first compound 2.53 µM): 0.91 | relative viability ([22]; first compound 8 µM): 0.743

— the supplement of paper PMC10307832
